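In this assay, cells in 96-well plates receive the compound at five concentrations for 48 hours. Endpoints are linearly interpolated between the surrounding concentrations. Abbreviation: GI50, concentration required for 50% inhibition of growth.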 Activity calls are given as the source filed them. Cut-off read from the data, not from the text of the source: active = GI50 up to about 1.1 µM and inactive = higher. Where a SMILES comes first, the peptide text is derived from it. The star is where a group is joined. Fmoc = O=C(OCC1c2ccccc2-c2ccccc21)*; OtBu = CC(C)(C)O*
Tests used:
Experiment in all cases: growth of human tumour cells (NCI), 48 h
MCF7 = test system: MCF7
NCI-H226 = test system: NCI-H226
M14 = test system: M14
SNB-19 = test system: SNB-19
K562 = test system: K562
SNB-75 = test system: SNB-75
SF-539 = test system: SF-539
NCI-H522 = test system: NCI-H522
SR = test system: SR
U-251 = test system: U-251
NCI-H460 = test system: NCI-H460
MDA-MB-231 = test system: MDA-MB-231
CAKI-1 = test system: CAKI-1
SK-OV-3 = test system: SK-OV-3
MOLT-4 = test system: MOLT-4
UO-31 = test system: UO-31
HCT-15 = test system: HCT-15
HT-29 = test system: HT-29
SK-MEL-2 = test system: SK-MEL-2
OVCAR-5 = test system: OVCAR-5

SMILES	GI50 (MCF7)	GI50 (NCI-H226)	GI50 (M14)	GI50 (SNB-19)	GI50 (K562)	GI50 (SNB-75)	GI50 (SF-539)	GI50 (NCI-H522)	GI50 (SR)	GI50 (U-251)	GI50 (NCI-H460)	GI50 (MDA-MB-231)	GI50 (CAKI-1)	GI50 (SK-OV-3)	GI50 (MOLT-4)	GI50 (UO-31)	GI50 (HCT-15)	GI50 (HT-29)	GI50 (SK-MEL-2)	GI50 (OVCAR-5)
O=C1/C(=C/c2ccc([N+](=O)[O-])cc2)Oc2cc(O)ccc21	27.2 µM (inactive)	13.2 µM (inactive)	43.1 µM (inactive)	29.1 µM (inactive)	17.9 µM (inactive)	32.2 µM (inactive)	23.4 µM (inactive)	24.8 µM (inactive)	16.9 µM (inactive)	28.1 µM (inactive)	31.5 µM (inactive)	26.5 µM (inactive)	23.6 µM (inactive)	25.1 µM (inactive)	14.6 µM (inactive)	17.7 µM (inactive)	25.1 µM			
N#CC1C(=O)SC2c3ccccc3C(=O)c3ccccc3C12 (stereo not drawn)	> 10 µM (inactive)	> 10 µM (inactive)	> 10 µM (inactive)	> 10 µM (inactive)	> 10 µM (inactive)	3.26 µM (inactive)	> 10 µM (inactive)		> 10 µM (inactive)	> 10 µM (inactive)	> 10 µM (inactive)	> 10 µM (inactive)	> 10 µM (inactive)	> 10 µM (inactive)	> 10 µM (inactive)	> 10 µM (inactive)	> 10 µM	> 10 µM (inactive)	> 10 µM (inactive)	> 10 µM (inactive)
Cc1ccc(N/N=C/C2=CC(C)(C)C(C#N)(C#N)C(O)=C2C#N)cc1	> 100 µM (inactive)	> 100 µM (inactive)	49.4 µM (inactive)	86.5 µM (inactive)	21.3 µM (inactive)	45.5 µM (inactive)	> 100 µM (inactive)	> 100 µM (inactive)	14.3 µM (inactive)		24.6 µM (inactive)	44.6 µM (inactive)	31.6 µM (inactive)	58.2 µM (inactive)	30.5 µM (inactive)	37.7 µM (inactive)		37.8 µM (inactive)		> 100 µM (inactive)
CCNC(=S)NNC(=O)c1ccccc1Nc1ccccc1C(=O)NNC(=S)NCC	> 100 µM (inactive)	> 100 µM (inactive)	> 100 µM (inactive)	> 100 µM (inactive)	> 100 µM (inactive)	> 100 µM (inactive)		> 100 µM (inactive)	> 100 µM (inactive)	> 100 µM (inactive)	> 100 µM (inactive)	> 100 µM (inactive)		> 100 µM (inactive)	> 100 µM (inactive)	> 100 µM (inactive)	> 100 µM	> 100 µM (inactive)	> 100 µM (inactive)	> 100 µM (inactive)
CC(C)=CCNc1ncnc2c1ncn2CCC(=O)O	> 100 µM (inactive)	> 100 µM (inactive)	> 100 µM (inactive)	> 100 µM (inactive)	> 100 µM (inactive)	> 100 µM (inactive)	> 100 µM (inactive)	> 100 µM (inactive)	> 100 µM (inactive)	> 100 µM (inactive)	> 100 µM (inactive)	> 100 µM (inactive)		> 100 µM (inactive)	> 100 µM (inactive)	> 100 µM (inactive)	> 100 µM	> 100 µM (inactive)		> 100 µM (inactive)
CC(C)C(NC(=O)OCC1c2ccccc2-c2ccccc21)C(=O)NC(CCC(=O)OC(C)(C)C)C(=O)OC(C)(C)C (stereo not drawn) (Fmoc-Val-Glu(OtBu)-OtBu; configuration not given here)	> 76.4 µM (inactive)	> 100 µM (inactive)	> 100 µM (inactive)	> 100 µM (inactive)	> 20.5 µM (inactive)	> 46.9 µM (inactive)	24.1 µM (inactive)	> 45.1 µM (inactive)	3.29 µM (inactive)	7.59 µM (inactive)	21.2 µM (inactive)	19.3 µM (inactive)	> 100 µM (inactive)	> 100 µM (inactive)	4.21 µM (inactive)	> 56.2 µM (inactive)	> 100 µM	> 100 µM (inactive)		> 100 µM (inactive)

— ChEMBL document CHEMBL1201862, “PubChem BioAssay data set” (2004)
